Measurements taken from patent publication US20250302767A1, “TREATMENT OF CANCER AND AUTOIMMUNE DISORDERS USING NANO POLYMERS OF HISTONE DEACETYLASE INHIBITORS” (University of Virginia Patent Foundation, priority 2021, published 2025).
Like-named read-outs stand apart in the source and are kept apart here.

Tests used:
[1] = system: cancer cell lines (SUP-T1, FEPD, H9, HH, SUP-M2, NKL, TL-1, FM3-29); test: Cell viability assay, summary across all cancer cell lines tested; type: cell-based, human
Experimental: Cell Viability Assay. For cell viability, cell lines were plated at the appropriate cell densities (SUP-T1, HH, NKL and TL-1 at 100,000 cells/ml/well and H9, FEPD SUP-M2 and FM3-29 at 50,000 cells/ml/well) in a 48-well plate. […] Luminescence was normalized to untreated control, which was defined as 100% viability.

[2] = Pharmacokinetic study, romidepsin in plasma; conditions: mouse, in vivo, 2.5 mg/kg
Experimental: Each treatment cohort was further divided into two sub-cohorts depending upon the route of administration (IP or IV). […] Mice were sacrificed (n=3 per time point) at 1, 3, 6, 18, 24, 48, and 72 hours after the treatment. Blood (˜1 mL) was collected via terminal cardiac puncture under CO2 anesthesia and collected in EDTA-coated K3EDTA tubes followed by centrifugation (2000×g for 15 min) to isolate plasma. Plasma was placed in cryopreservation vials and preserved by snap freezing using liquid nitrogen. Blood from three untreated mice was collected at the beginning of the treatment (T=0) and used as a control.
For efficacy study: 5- to 7-week-old female NOD.Cg-Prkdcscid Il2rgtm1Wjl/SzJ mice (The Jackson Laboratory). were injected with 3 million a fluorescent protein, Chili (dTomato-absorption max and emission max at 554 nm and 581 nm respectively)—and a bioluminescence generating protein, firefly luciferase (Luc) expressing H9 cells subcutaneously in the flank. In vivo BLI analysis was conducted on a cryogenically cooled Lago X (Spectral Instruments Imaging system). Mice were imaged twice a week starting 4 days after inoculation of cells. […] Baseline imaging data were recorded for all mice on day 1 (start of drug administration) and on each day of drug administration before the treatment. The numbers of animals, study design, and treatment of animals were reviewed, and approved by the Institutional Animal Care and Use Committee (IACUC) of the University of Virginia, Charlottesville, Virginia, United States of America.

[3] = system: PBMCs from healthy donors; test: Cell viability of normal cells (CELL TITER GLO); type: cell-based, human; conditions: for IC50: Homo sapiens, PBMC
PTCL = conditions: cited from earlier work; for Outcomes: ORR / Outcomes: CR / Outcomes: DOR: patients with PTCL; for response, share of patients: R/R PTCL
H9 (CTCL) = test: Cell viability assay ([…]-GLO); type: cell-based; conditions: Homo sapiens, 60 h, read-out: IC50 in nM at 60 Hours
From the text: (§1) Cell lines. The T cell lymphoma cell lines HH and H9 (both Cutaneous T Cell Lymphomas; CTCL), SUP-T1 (T Cell Lymphoblastic Lymphoma) and FEPD and SUP-M2 (ALK-negative anaplastic large cell lymphoma; ALCL), were obtained from ATCC. NKL (Natural killer cell lymphoblastic leukemia/lymphoma) cell lines (Robertson et al., 1996) were also employed. The cutaneous melanoma cell line FM3-29 was obtained from DSMZ. The Large Granular Lymphocyte (LGL) leukemia cell line TL-1 was generated in the Loughran lab. All cells were grown at 37° C. and 5% CO2 in a humidified incubator. Cell lines were authenticated by short tandem repeat DNA profiling (Genetica DNA laboratories) and tested for mycoplasma contamination routinely using the MycoAlert PLUS detection kit (Lonza #LT07-710). Experiments were performed within 6 weeks of thawing. HH, H9, SUP-T1, FEPD and FM3-29 cells were cultured in RPMI-1640 (Corning, Glendale, AZ) with 10% FBS (Thermofisher Scientific, Waltham, MA). SUP-M2 cells were cultured in RPMI-1640 with 20% FBS. TL-1 cells were cultured in RPMI-1640 with 10% FBS and supplemented with 200 U/ml IL-2 (Miltenyi Biotec cat #130-097-743). NKL cells were cultured in RPMI-1640 with 10% FBS and supplemented with 100 U/ml IL-2.
(§2) Cell Viability Assay. For cell viability, cell lines were plated at the appropriate cell densities (SUP-T1, HH, NKL and TL-1 at 100,000 cells/ml/well and H9, FEPD SUP-M2 and FM3-29 at 50,000 cells/ml/well) in a 48-well plate. […] Cells were harvested after 24, 60, and 96 hours of incubation at 37° C., 5% CO2 and assayed for cell viability, using […]-GLO® (Promega) luminescence reagent, by quantifying the amount of ATP present. After 15 minutes of adding […]-GLO® reagent at a 1:1 ratio, luminescence was read on a GLOMAX® Discover Microplate Reader (Promega). Luminescence was normalized to untreated control, which was defined as 100% viability.

HH (CTCL) = test: Cell viability assay ([…]-GLO); type: cell-based; conditions: Homo sapiens, 60 h, read-out: IC50 in nM at 60 Hours
From the text: as §1, §2

[4] = system: FM3-29 (cutaneous melanoma); test: Cell viability assay ([…]-GLO); type: cell-based; conditions: Homo sapiens, 60 h, read-out: IC50 in nM at 60 Hours
From the text: as §1, §2

TL-1 (LGL leukemia) = test: Cell viability assay ([…]-GLO); type: cell-based; conditions: Homo sapiens, 60 h, read-out: IC50 in nM at 60 Hours
From the text: as §1, §2

[5] = system: SUP-T1 (T Cell Lymphoblastic Lymphoma); test: Cell viability assay ([…]-GLO); type: cell-based; conditions: Homo sapiens, SUP-T1, 60 h, read-out: IC50 in nM at 60 Hours
From the text: as §1, §2

FEPD (ALCL) = test: Cell viability assay ([…]-GLO); type: cell-based; conditions: Homo sapiens, 60 h, read-out: IC50 in nM at 60 Hours
From the text: as §1, §2

[6] = single agent, pivotal trial cited per drug (romidepsin: trial (6))

## C/C=C1\NC(=O)[C@H]2CSSCC/C=C/[C@H](CC(=O)N[C@H](C(C)C)C(=O)N2)OC(=O)[C@H](C(C)C)NC1=O [Romidepsin, (1S,4S,7Z,10S,16E,21R)-7-Ethylidene-4,21-diisopropyl-2-oxa-12,13-dithia-5,8,20,23-tetrazabicyclo[8.7.6]tricos-16-ene-3,6,9,19,22-pentone]
[1]; Homo sapiens, 60 h, read-out: Avg. IC50 across the cancer cell lines, 60 hours, 8 cancer cell lines, b235 with +/- spread
  IC50: 1.23 nM
[1]; Homo sapiens, 60 h, read-out: IC50 range across the cancer cell lines, 60 hours, 8 cancer cell lines
  IC50: 0.6 to 1.9 nM
[1]; read-out: Avg. IC50 across the cancer cell lines, 60 hours, 8 cancer cell lines, b235 with +/- spread
  IC50: 1.23 nM
[2]; ip
  AUC(0-inf): 1930 ng·h/mL
  AUC(0-t): 1920 ng·h/mL
  Cmax: 120 ng/mL
  MRT inf: 12.8 h
  Tmax: 6 h
  Vd/F: 20 L/kg
  half-life: 9.83 h
[2]; iv
  AUC(0-inf): 108 ng·h/mL
  AUC(0-t): 99.3 ng·h/mL
  Cmax: 21.3 ng/mL
  MRT inf: 5.53 h
  Tmax: 1 h
  half-life: 5.22 h
[3]; 72 hrs PBMCs vs cancer cells
  times PBMCs from healthy donors more sensitive than the cancer cells: 1.5 ×
[3]; 24 h, read-out: IC50 in nM, PBMC Donor 1, 24 hrs
  IC50: 0.02 nM
[3]; 24 h, read-out: IC50 in nM, PBMC Donor 2, 24 hrs
  IC50: > 50 nM
[3]; 24 h, read-out: IC50 in nM, PBMC Donor 3, 24 hrs
  IC50: > 50 nM
[3]; 48 h, read-out: IC50 in nM, PBMC Donor 1, 48 hrs
  IC50: 0.01 nM
[3]; 48 h, read-out: IC50 in nM, PBMC Donor 2, 48 hrs
  IC50: 0.01 nM
[3]; 48 h, read-out: IC50 in nM, PBMC Donor 3, 48 hrs
  IC50: > 50 nM
[3]; 72 h, read-out: IC50 in nM, PBMC Donor 1, 72 hrs
  IC50: 0.04 nM
[3]; 72 h, read-out: IC50 in nM, PBMC Donor 2, 72 hrs
  IC50: 0.07 nM
[3]; 72 h, read-out: IC50 in nM, PBMC Donor 3, 72 hrs
  IC50: 2.48 nM
[3]; read-out: Avg. IC50 across the PBMCs from healthy donors, 3 donors, 72 hrs (sentence prints 'At 60 hrs' for NanoRomidepsin PDLLA)
  IC50: 0.8 nM
[3]; read-out: IC50 range across the PBMCs from healthy donors, 3 donors, 72 hrs (sentence prints 'At 60 hrs' for NanoRomidepsin PDLLA)
  IC50: 0.04 to 2.5 nM
PTCL; single agent, pivotal trial cited per drug (romidepsin: trial (6) Coiffier et al., 2014)
  Outcomes: ORR: 25%
PTCL; [6]
  Outcomes: CR: 15%
  Outcomes: DOR: 28 months
PTCL; trial (7) Piekarz et al., 2011
  Outcomes: CR: 18%
  Outcomes: DOR: 8.9 months
  Outcomes: ORR: 38%
PTCL; single agent
  response, share of patients: 25%
PTCL; single agent, listed as romidepsin
  response, share of patients: about 25%
H9 (CTCL)
  IC50: 1.4 nM
HH (CTCL)
  IC50: 1.3 nM
[4]
  IC50: 0.6 nM
TL-1 (LGL leukemia)
  IC50: 0.7 nM
[5]
  IC50: 1.9 nM
FEPD (ALCL)
  IC50: 1.6 nM
